Where “and” joins values, the source holds several entries; their conditions need not be identical. Equal entries are not always repeated. Toxic doses and inconclusive results are not listed. Rule as the data show it: active = T/C of 150% or more; inactive = T/C below 125%.
Tested on: L1210 leukemia ip in BDF1 mice, survival T/C
Experiment: NCI In Vivo Anticancer Drug Screen. Data for tumor model L1210 Leukemia (intraperitoneal) in B6D2F1 (BDF1) mice
Details: endpoint: mean survival time, higher = longer survival
Method in brief: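 Tumor was transplanted into mice, which were then dosed with test compound or vehicle alone. Survival was recorded for each group, and the treated figure was expressed relative to the control figure.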

[1] = dose: 100.0 mg/kg/injection, schedule: Q04DX003 (ip), vehicle: saline
[2] = dose: 200.0 mg/kg/injection, schedule: Q04DX003 (ip), vehicle: saline
[3] = dose: 400.0 mg/kg/injection, schedule: Q04DX003 (ip), vehicle: saline
[4] = dose: 100.0 mg/kg/injection, schedule: Q01DX009 (ip), vehicle: saline
[5] = dose: 200.0 mg/kg/injection, schedule: Q01DX009 (ip), vehicle: saline
[6] = dose: 400.0 mg/kg/injection, schedule: Q01DX009 (ip), vehicle: saline
[7] = dose: 100.0 mg/kg/injection, schedule: Q04DX002 (ip), vehicle: Klucel (hydroxypropylcellulose) (HPC)
[8] = dose: 200.0 mg/kg/injection, schedule: Q04DX002 (ip), vehicle: Klucel (hydroxypropylcellulose) (HPC)
[9] = dose: 400.0 mg/kg/injection, schedule: Q04DX002 (ip), vehicle: Klucel (hydroxypropylcellulose) (HPC)
[10] = dose: 100.0 mg/kg/injection, schedule: Q01DX001 (ip), vehicle: carboxymethylcellulose (CMC)
[11] = dose: 200.0 mg/kg/injection, schedule: Q01DX001 (ip), vehicle: carboxymethylcellulose (CMC)
[12] = dose: 400.0 mg/kg/injection, schedule: Q01DX001 (ip), vehicle: carboxymethylcellulose (CMC)
[13] = dose: 100.0 mg/kg/injection, schedule: Q01DX001 (ip), vehicle: saline
[14] = dose: 200.0 mg/kg/injection, schedule: Q01DX001 (ip), vehicle: saline
[15] = dose: 400.0 mg/kg/injection, schedule: Q01DX001 (ip), vehicle: saline

Measured: T/C

COc1ccc(NC(=O)c2ccc(C(=O)Nc3ccc(OC)cc3)cc2)cc1
inactive: [1] 92 % of control | [2] 97 % of control | [3] 92 % of control

CCOC(=O)C(C)(O)C1(Cl)CCC(C(C)(C)C)CC1 (configuration not stated)
inactive: dose: 100.0 mg/kg/injection, schedule: Q04DX002 (ip), vehicle: saline 103 % of control | dose: 200.0 mg/kg/injection, schedule: Q04DX002 (ip), vehicle: saline 103 % of control | dose: 400.0 mg/kg/injection, schedule: Q04DX002 (ip), vehicle: saline 100 % of control

CC(C)(C)c1ccc(OCCCOc2ccc(C(=O)O)cc2)cc1
inactive: dose: 100.0 mg/kg/injection, schedule: Q01DX001 (ip), vehicle: Klucel (hydroxypropylcellulose) (HPC) 97 % of control | dose: 100.0 mg/kg/injection, schedule: Q01DX009 (ip), vehicle: saline sonified 103 % of control | dose: 200.0 mg/kg/injection, schedule: Q01DX001 (ip), vehicle: Klucel (hydroxypropylcellulose) (HPC) 103 % of control | dose: 200.0 mg/kg/injection, schedule: Q01DX009 (ip), vehicle: saline sonified 118 % of control | dose: 400.0 mg/kg/injection, schedule: Q01DX001 (ip), vehicle: Klucel (hydroxypropylcellulose) (HPC) 100 % of control | dose: 400.0 mg/kg/injection, schedule: Q01DX009 (ip), vehicle: saline sonified 94 % of control

Cn1c(=O)c2c(ncn2CCCCO)n(C)c1=O
inactive: [4] 94 % of control | [5] 95 % of control | [6] 92 % of control

CCCCn1c(C)cc2c(c1=O)COC(=O)C2CC (configuration not stated)
inactive: dose: 2.5 mg/kg/injection, schedule: Q04DX003 (ip), vehicle: saline 100 % of control | dose: 5.0 mg/kg/injection, schedule: Q04DX003 (ip), vehicle: saline 100 % of control | dose: 10.0 mg/kg/injection, schedule: Q04DX003 (ip), vehicle: saline 95 % of control | dose: 20.0 mg/kg/injection, schedule: Q04DX003 (ip), vehicle: saline 97 % of control | dose: 40.0 mg/kg/injection, schedule: Q04DX003 (ip), vehicle: saline 94 % of control | dose: 80.0 mg/kg/injection, schedule: Q04DX003 (ip), vehicle: saline 95 % of control

CN(N)c1cc(=O)[nH]c(N)n1
inactive: [7] 101 % of control | [8] 97 % of control | [9] 92 % of control

O=C1NC(=O)C(C2CCCCC2)(C2CCCCC2)N1
inactive: [4] 103 % of control | dose: 100.0 mg/kg/injection, schedule: Q04DX003 (ip), vehicle: saline with Tween-80 107 % of control | [5] 94 % of control | dose: 200.0 mg/kg/injection, schedule: Q04DX003 (ip), vehicle: saline with Tween-80 107 % of control | [6] 88 % of control | dose: 400.0 mg/kg/injection, schedule: Q04DX003 (ip), vehicle: saline with Tween-80 93 % of control

Cc1ccc(S(=O)(=O)NCCC(Cl)(Cl)Cl)cc1
inactive: dose: 100.0 mg/kg/injection, schedule: Q04DX003 (ip), vehicle: Klucel (hydroxypropylcellulose) (HPC) 104 % of control | dose: 200.0 mg/kg/injection, schedule: Q04DX003 (ip), vehicle: Klucel (hydroxypropylcellulose) (HPC) 101 % of control | dose: 400.0 mg/kg/injection, schedule: Q04DX003 (ip), vehicle: Klucel (hydroxypropylcellulose) (HPC) 98 % of control

COC1OC(COS(C)(=O)=O)C(OS(C)(=O)=O)C(OC(=O)c2ccccc2)C1OC(=O)c1ccccc1 (configuration not stated)
inactive: [7] 109 % of control | [8] 101 % of control | [9] 101 % of control

O=C(NCCCCCCNC(=O)c1ccccc1)c1ccccc1
inactive: dose: 50.0 mg/kg/injection, schedule: Q01DX001 (ip), vehicle: carboxymethylcellulose (CMC) 100 % of control | [10] 103 % of control | [11] 97 % of control | [12] 97 % of control

COC(=O)c1cc(C)cc(O)c1C
inactive: [10] 104 % of control | [11] 98 % of control | [12] 104 % of control

CCCCCCCCCCC1CC2CCCC3CCC4CCCC1C4C32 (configuration not stated)
inactive: dose: 100.0 mg/kg/injection, schedule: Q01DX001 (ip), vehicle: saline with Tween-80 95 % of control | dose: 200.0 mg/kg/injection, schedule: Q01DX001 (ip), vehicle: saline with Tween-80 108 % of control | dose: 400.0 mg/kg/injection, schedule: Q01DX001 (ip), vehicle: saline with Tween-80 100 % of control

O=Cc1ccc2cccnc2c1O
inactive: dose: 50.0 mg/kg/injection, schedule: Q01DX001 (ip), vehicle: saline 114 % of control | [13] 108 % of control | [14] 93 % of control

c1ccc2cc(-c3cc4ccccc4s3)ccc2c1
inactive: [13] 106 % of control | dose: 100.0 mg/kg/injection, schedule: Q01DX009 (ip), vehicle: acetone 98 % of control | dose: 100.0 mg/kg/injection, schedule: Q04DX003 (ip), vehicle: acetone 100 % of control | [14] 103 % of control | dose: 200.0 mg/kg/injection, schedule: Q01DX009 (ip), vehicle: acetone 104 % of control | dose: 200.0 mg/kg/injection, schedule: Q04DX003 (ip), vehicle: acetone 98 % of control | dose: 264.0 mg/kg/injection, schedule: Q01DX009 (ip), vehicle: saline 110 % of control | [15] 104 % of control | [6] 115 % of control | dose: 400.0 mg/kg/injection, schedule: Q04DX003 (ip), vehicle: acetone 90 % of control

O=C(O)c1cc2ccccc2cc1O.Oc1cccc2cccnc12.[Cu]
inactive: dose: 0.5 mg/kg/injection, schedule: Q01DX015 (ip), vehicle: carboxymethylcellulose (CMC) 91 % of control | dose: 1.0 mg/kg/injection, schedule: Q01DX015 (ip), vehicle: carboxymethylcellulose (CMC) 91 % of control | dose: 4.0 mg/kg/injection, schedule: Q01DX015 (ip), vehicle: carboxymethylcellulose (CMC) 93 % of control | dose: 8.0 mg/kg/injection, schedule: Q01DX015 (ip), vehicle: carboxymethylcellulose (CMC) 89 % of control and 90 % of control

CC(=O)CSc1ccccn1
inactive: [10] 102 % of control | [11] 94 % of control | [12] 96 % of control

NNC(=O)c1ccccn1
inactive: dose: 50.0 mg/kg/injection, schedule: Q01DX001 (ip), vehicle: water 98 % of control | dose: 75.0 mg/kg/injection, schedule: Q01DX001 (ip), vehicle: water 98 % of control | dose: 100.0 mg/kg/injection, schedule: Q01DX009 (ip), vehicle: water 97 % of control | dose: 150.0 mg/kg/injection, schedule: Q01DX001 (ip), vehicle: water 102 % of control

CCC(CC)c1cccc2ccccc12
inactive: [13] 98 % of control | [14] 96 % of control | [15] 108 % of control

COc1ccc(NC(=O)Nc2nccs2)c(OC)c1
inactive: [4] 104 % of control | [5] 102 % of control | [6] 105 % of control

C=CS(=O)(=O)CCCCCCC
inactive: dose: 75.0 mg/kg/injection, schedule: Q01DX001 (ip), vehicle: saline 96 % of control | dose: 150.0 mg/kg/injection, schedule: Q01DX001 (ip), vehicle: saline 94 % of control | dose: 300.0 mg/kg/injection, schedule: Q01DX001 (ip), vehicle: saline 97 % of control

CC(C)CN(CC(C)C)C(=O)CCl
inactive: [10] 106 % of control

OCC1OC(n2cnc3c2NC=NC[C@H]3O)CC1O (some centres not stated)
inactive: dose: 0.13 mg/kg/injection, schedule: Q01DX005 (ip), vehicle: water 100 % of control | dose: 0.13 mg/kg/injection, schedule: Q01DX009 (ip), vehicle: water 104 % of control | dose: 0.25 mg/kg/injection, schedule: Q01DX005 (ip), vehicle: water 105 % of control | dose: 0.25 mg/kg/injection, schedule: Q01DX009 (ip), vehicle: water 101 % of control | dose: 0.25 mg/kg/injection, schedule: Q04DX002 (ip), vehicle: water 98 % of control | dose: 0.25 mg/kg/injection, schedule: Q04DX003 (ip), vehicle: water 98 % of control | dose: 0.5 mg/kg/injection, schedule: Q04DX002 (ip), vehicle: water 95 % of control | dose: 0.5 mg/kg/injection, schedule: Q04DX003 (ip), vehicle: water 106 % of control

O=c1ccn(CCCOc2ccccc2)c(=O)[nH]1
inactive: dose: 25.0 mg/kg/injection, schedule: Q04DX002 (ip), vehicle: Klucel (hydroxypropylcellulose) (HPC) 102 % of control | dose: 50.0 mg/kg/injection, schedule: Q04DX002 (ip), vehicle: Klucel (hydroxypropylcellulose) (HPC) 102 % of control | [7] 106 % of control

CC(=O)OC1C=CCc2c(O)c3c(c(O)c21)C(=O)c1ccccc1C3=O (configuration not stated)
inactive: [4] 91 % of control | [1] 90 % of control | [5] 109 % of control | [2] 88 % of control | [6] 103 % of control | [3] 91 % of control
